Laboratory results reported in patent publication US10463651B2, “3-(1H-pyrrolo[3,2-C]pyridin-2-YL)-1H-indazoles and therapeutic uses thereof” (Samumed, LLC, priority 2015, dated 2019).
pEC50: −log10 of the molar value.

Experiments:
Type in all cases: cell-based
[1] = tested on: SW480 colon cancer cells; test: Cell viability assay (CellTiter-Blue); conditions: Homo sapiens; for pEC50: 96 h, SW480 cell viability, four days, CellTiter-Blue; for inhibition at 10 µM: SW480, 96 h, read-out: percent inhibition at 10 μM
Procedure, shortened: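 Fluorescence from resazurin reduced to resorufin by metabolically active cells was the read-out, taken after ~3 h with CellTiter-Blue.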

[2] = tested on: primary human fibroblasts derived from IPF patients (LL29 cells) treated with TGF-β1; test: Inhibition of the fibrotic process (αSMA staining) in TGF-β1-treated fibroblasts; conditions: Fibroblast, 96 h; for pEC50: % αSMA-positive LL29 cells, TGF-β1 20 ng/mL, 4 days; for inhibition at 10 µM: read-out: percent inhibition at 10 μM
Procedure, shortened: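 LL29 fibroblasts from IPF patients, 1,500 cells/well in F12 with 1% FBS, stimulated with TGF-β1; TGF-β1 plus DMSO wells as controls. Incubation 4 days, then SYTOX green 1 μM final for 30 min at room temperature. Fibrotic response read as αSMA staining.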

[3] = tested on: IL-6 (THP-1 cells); test: IL-6 inhibition in LPS-stimulated THP-1 cells (HTRF); conditions: Homo sapiens; for pEC50: IL6 by HTRF, THP-1 cells, 500 ng/mL LPS, 22 hours; for inhibition at 10 µM: THP-1, read-out: percent inhibition at 10 M
Procedure, shortened: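 THP-1 cells, pre-cultured 24 h in 1% FBS medium, treated with compound 2 h at 37 °C, then stimulated with 500 ng/mL LPS for 22 h. Secreted IL-6 measured by HTRF as the 665/620 nm ratio. Values normalized to DMSO; EC50 from four-parameter fit, duplicates.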

[4] = tested on: primary human mesenchymal stem cells (hMSCs); test: Induction of chondrogenesis in hMSCs (Rhodamine B / Nile Red nodule imaging); conditions: for Emax: maximum activity relative to TGF-β3 (10 ng/mL) positive control, read-out: Max. Activity as % TGF-β3 activity; for EC50: concentration required to induce 50% levels of chondrogenesis vs TGF-β3 positive control, read-out: Conc (nM) of 50% TGF-β3 activity
Procedure, shortened: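 Primary hMSCs at passage 3-6 were treated with compound; nodule area per well was normalized to the mean of 3 DMSO wells, averaged over 2-3 replicates, and the concentration giving 50% chondrogenesis relative to TGF-β3 control, plus maximum activity and its dose, was derived.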

[5] = tested on: Wnt activity (Sp5-Luc reporter, SW480 colon carcinoma cells); test: Screening assay for Wnt activity (Sp5-Luc reporter gene assay in SW480 cells); conditions: Homo sapiens; for pEC50: Sp5-Luc reporter, SW480 cells, incubated overnight; for inhibition at 10 µM: SW480, read-out: percent inhibition at 10 μM
Procedure, shortened: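 SW480 colon carcinoma cells stably carrying Sp5 promoter (eight TCF/LEF sites)-driven firefly luciferase, plated at 4,000 cells/well in 1% FBS medium and incubated overnight at 37° C. Luminescence normalised to DMSO-only cells; EC50 from four-parameter variable-slope nonlinear regression.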

| Compound | pEC50 [1] | pEC50 [2] | pEC50 [3] | Emax [4] [%] | pEC50 [5] | EC50 [4] [nM] | inhibition at 10 µM [1] [%] | inhibition at 10 µM [2] [%] | inhibition at 10 µM [3] [%] | inhibition at 10 µM [5] [%] |
| --- | --- | --- | --- | --- | --- | --- | --- | --- | --- | --- |
| CCC(=O)Nc1cncc(-c2ccc3[nH]nc(-c4cc5c(-c6cccc(F)c6)nccc5[nH]4)c3c2)c1 [Compound 1, N-(5-(3-(4-(3-Fluorophenyl)-1H-pyrrolo[3,2-c]pyridin-2-yl)-1H-indazol-5-yl)pyridin-3-yl)propionamide] | 6.99 | 7.39 | 7.46 | 16 | 7.35 | – | – | – | – | – |
| CCCC(=O)Nc1cncc(-c2ccc3[nH]nc(-c4cc5c(-c6ccc(F)cc6)nccc5[nH]4)c3c2)c1 [Compound 45, N-(5-(3-(4-(4-Fluorophenyl)-1H-pyrrolo[3,2-c]pyridin-2-yl)-1H-indazol-5-yl)pyridin-3-yl)butyramide] | 6.58 | 6.58 | 6.03 | 142 | 6.28 | 900 | – | – | – | – |
| c1cncc(-c2ccc3[nH]nc(-c4cc5c(N6CCCCC6)nccc5[nH]4)c3c2)c1 [Compound 172, 3-(4-(Piperidin-1-yl)-1H-pyrrolo[3,2-c]pyridin-2-yl)-5-(pyridin-3-yl)-1H-indazole] | 6.07 | 5.98 | 6.72 | 172 | 6.32 | 10 | – | – | – | – |
| O=C(Nc1cncc(-c2ccc3[nH]nc(-c4cc5c(-c6cccnc6)nccc5[nH]4)c3c2)c1)c1ccccc1 [Compound 95, N-(5-(3-(4-(Pyridin-3-yl)-1H-pyrrolo[3,2-c]pyridin-2-yl)-1H-indazol-5-yl)pyridin-3-yl)benzamide] | < 5.00 | < 5.00 | 8.00 | 19 | 6.38 | – | 15.5 | 0 | – | – |
| CN1CCN(c2nccc3[nH]c(-c4n[nH]c5ccc(-c6cncc(NC(=O)CC7CCNCC7)c6)cc45)cc23)CC1 [Compound 641] | < 5.00 | 5.00 | < 5.00 | 43 | < 5.00 | – | 20.9 | – | 28.7 | 0 |
| c1cncc(-c2ccc3[nH]nc(-c4cc5cnccc5[nH]4)c3c2)c1 [Compound 256, 5-(Pyridin-3-yl)-3-(1H-pyrrolo[3,2-c]pyridin-2-yl)-1H-indazole] | 7.17 | 6.97 | 7.28 | 341 | 7.40 | 10 | – | – | – | – |
| O=C(Nc1cncc(-c2ccc3[nH]nc(-c4cc5c(-c6cccc(F)c6)nccc5[nH]4)c3c2)c1)C1CC1 [Compound 20, N-(5-(3-(4-(3-Fluorophenyl)-1H-pyrrolo[3,2-c]pyridin-2-yl)-1H-indazol-5-yl)pyridin-3-yl)cyclopropanecarboxamide] | 6.75 | 6.78 | 7.41 | 91 | 7.30 | 2700 | – | – | – | – |
| c1cc2[nH]c(-c3n[nH]c4ccc(-c5cncnc5)cc34)cc2cn1 [Compound 279, 5-(Pyrimidin-5-yl)-3-(1H-pyrrolo[3,2-c]pyridin-2-yl)-1H-indazole] | 5.64 | 6.16 | 5.73 | 22 | 5.83 | – | – | – | – | – |
| CS(=O)(=O)NCc1cc(F)cc(-c2nccc3[nH]c(-c4n[nH]c5ccc(-c6cncnc6)cc45)cc23)c1 [Compound 503, N-(3-Fluoro-5-(2-(5-(pyrimidin-5-yl)-1H-indazol-3-yl)-1H-pyrrolo[3,2-c]pyridin-4-yl)benzyl)methanesulfonamide] | < 5.00 | < 5.00 | 7.46 | 40 | 5.51 | – | 32.7 | 15.5 | – | – |
| O=C(Nc1cncc(-c2ccc3[nH]nc(-c4cc5c(-c6ccncc6)nccc5[nH]4)c3c2)c1)C1CCCC1 [Compound 134, N-(5-(3-(4-(Pyridin-4-yl)-1H-pyrrolo[3,2-c]pyridin-2-yl)-1H-indazol-5-yl)pyridin-3-yl)cyclopentanecarboxamide] | < 5.00 | 5.61 | 5.01 | 114 | < 5.00 | 30 | 4.2 | – | – | 20.6 |
| CN(C)Cc1cncc(-c2ccc3[nH]nc(-c4cc5c(-c6cccc(F)c6)nccc5[nH]4)c3c2)c1 [Compound 13, 1-(5-(3-(4-(3-Fluorophenyl)-1H-pyrrolo[3,2-c]pyridin-2-yl)-1H-indazol-5-yl)pyridin-3-yl)-N,N-dimethylmethanamine] | 6.11 | 5.56 | 6.42 | 42 | 5.53 | – | – | – | – | – |
| CC(C)(C)CC(=O)Nc1cncc(-c2ccc3[nH]nc(-c4cc5c(N6CCCCC6)nccc5[nH]4)c3c2)c1 [Compound 184, 3,3-Dimethyl-N-(5-(3-(4-(piperidin-1-yl)-1H-pyrrolo[3,2-c]pyridin-2-yl)-1H-indazol-5-yl)pyridin-3-yl)butanamide] | 5.81 | 5.83 | 5.05 | 79 | 5.69 | 900 | – | – | – | – |
| c1cc2[nH]c(-c3n[nH]c4ccc(-c5cncc(CN6CCCCC6)c5)cc34)cc2cn1 [Compound 267, 5-(5-(Piperidin-1-ylmethyl)pyridin-3-yl)-3-(1H-pyrrolo[3,2-c]pyridin-2-yl)-1H-indazole] | 6.37 | 6.24 | 6.54 | 122 | 6.16 | 100 | – | – | – | – |
| Fc1ccc(-c2nccc3[nH]c(-c4n[nH]c5ccc(-c6cncc(CN7CCCC7)c6)cc45)cc23)cc1 [Compound 42, 3-(4-(4-Fluorophenyl)-1H-pyrrolo[3,2-c]pyridin-2-yl)-5-(5-(pyrrolidin-1-ylmethyl)pyridin-3-yl)-1H-indazole] | 5.85 | 5.87 | 5.05 | 98 | 5.44 | 30 | – | – | – | – |
| O=C(Nc1cncc(-c2ccc3[nH]nc(-c4cc5cnccc5[nH]4)c3c2)c1)C1CCCCC1 [Compound 275, N-(5-(3-(1H-Pyrrolo[3,2-c]pyridin-2-yl)-1H-indazol-5-yl)pyridin-3-yl)cyclohexanecarboxamide] | 6.59 | 6.96 | 7.11 | 155 | 6.55 | 30 | – | – | – | – |
| Cc1ncc(-c2ccc3[nH]nc(-c4cc5c(-c6ccncc6)nccc5[nH]4)c3c2)n1C [Compound 573, 5-(1,2-Dimethyl-1H-imidazol-5-yl)-3-(4-(pyridin-4-yl)-1H-pyrrolo[3,2-c]pyridin-2-yl)-1H-indazole] | 5.40 | 5.00 | < 5.00 | 36 | 5.91 | – | – | – | 38.8 | – |
| CCCCC(=O)Nc1cncc(-c2ccc3[nH]nc(-c4cc5cnccc5[nH]4)c3c2)c1 [Compound 271, N-(5-(3-(1H-Pyrrolo[3,2-c]pyridin-2-yl)-1H-indazol-5-yl)pyridin-3-yl)pentanamide] | 6.31 | 6.72 | 6.83 | 67 | 6.56 | 900 | – | – | – | – |
| Cc1ccncc1-c1ccc2[nH]nc(-c3cc4c(-c5ccoc5)nccc4[nH]3)c2c1 [Compound 313, 3-(4-(Furan-3-yl)-1H-pyrrolo[3,2-c]pyridin-2-yl)-5-(4-methylpyridin-3-yl)-1H-indazole] | 5.80 | 6.54 | 6.19 | 153 | 6.21 | 2700 | – | – | – | – |
